Results on 22 molecules are retold here after ChEMBL document CHEMBL1795345, “Significant enhancement in radical-scavenging activity of curcuminoids conferred by acetoxy substituent at the central methylene carbon” (Bioorg Med Chem, 2011).

For experiment [1], the system named is Radical scavenging activity. In words: Antioxidant activity assessed as DPPH radical scavenging activity. Format: functional.
Experiment [2] deals with Radical scavenging activity. In words: Antioxidant activity assessed as reduction in compound induced DPPH radical scavenging activity at 100 uM in presence of 100 mM acetic acid measured 30 mins after mixing compound with DPPH. Format: functional. Further details: scale not given: the % may be the effect or the level left.

pEC50: −log10 of the molar value.

As for `CO/C(C(=O)/C=C/c1ccc(O)c(OC)c1)=C(O)\C=C\c1ccc(O)c(OC)c1`, the pEC50 in experiment [1] is 4.52.

As to `O=C(/C=C(O)/C=C/c1ccccc1)/C=C/c1ccccc1`, in experiment [1], the pEC50 is less than 4.00.

Take `COc1cc(/C=C/C(=O)/C(C)=C(O)/C=C/c2ccc(O)c(OC)c2)ccc1O`: the pEC50 in experiment [1] was 4.63.

Turning to `O=C1O[C@H]([C@@H](O)CO)C(O)=C1O` [ASCORBIC ACID], the negative logarithm of the EC50 (pEC50) in experiment [1] is 4.80.

For the molecule `C=CC/C(C(=O)/C=C/c1ccc(O)c(OC)c1)=C(O)\C=C\c1ccc(O)c(OC)c1`, the pEC50 in experiment [1] was 4.63.

On to `COc1cc(/C=C/C(=O)CC(=O)/C=C/c2ccc(O)c(OC)c2)ccc1O` [CURCUMIN], for which the pEC50 in experiment [1] was 4.65. The Activity in experiment [2] was found to be 10%.

Regarding `O=C(/C=C/c1ccc(O)cc1)CC(=O)/C=C/c1ccc(O)cc1` [BISDEMETHOXYCURCUMIN], the pEC50 in experiment [1] was less than 4.00.

In the case of `COc1cc(/C=C/C(=O)/C=C(O)/C=C/c2cc(O)c(O)c(OC)c2)cc(O)c1O`, the negative-log EC50 (pEC50) in experiment [1] is 4.95.

`COc1cc(/C=C/C(=O)/C(OC(C)=O)=C(O)/C=C/c2cc(OC)c(OC)c(OC)c2)cc(OC)c1OC`: the pEC50 in experiment [1] was 4.56. For the same molecule, the Activity in experiment [2] came to 25%.

As to `COc1cc(/C=C/C(=O)/C(OC(C)=O)=C(O)/C=C/c2ccc(O)c(OC)c2)ccc1O`, the pEC50 in experiment [1] is 5.06. Moreover, the Activity in experiment [2] amounted to 10%.

For `COc1ccc(/C=C/C(=O)/C(C)=C(O)/C=C/c2ccc(OC)c(OC)c2)cc1OC`, the negative-log EC50 (pEC50) in experiment [1] was less than 4.00.

For `CC(=O)O/C(C(=O)/C=C/c1ccccc1)=C(O)\C=C\c1ccccc1`, the pEC50 in experiment [1] is 4.32. For the same molecule, in experiment [2], the Activity was 25%.

For `CC(=O)O/C(C(=O)/C=C/c1ccc(O)cc1)=C(O)\C=C\c1ccc(O)cc1`, in experiment [1], the pEC50 was 4.58. For the same molecule, the Activity in experiment [2] turned out to be 13%.

For `CCOC(=S)S/C(C(=O)/C=C/c1ccc(O)c(OC)c1)=C(O)\C=C\c1ccc(O)c(OC)c1`, in experiment [1], the pEC50 was 4.53.

Take `COc1ccc(/C=C/C(=O)/C=C(O)/C=C/c2ccc(OC)cc2)cc1`: the pEC50 in experiment [1] was less than 4.00.

For the molecule `COc1ccc(/C=C/C(=O)/C(OC(C)=O)=C(O)/C=C/c2ccc(OC)c(OC)c2)cc1OC`, the pEC50 in experiment [1] was 4.66. The Activity in experiment [2] turned out to be 25%.

`C=CC/C(C(=O)/C=C/c1ccc(OC)c(OC)c1)=C(O)\C=C\c1ccc(OC)c(OC)c1`: in experiment [1], the pEC50 was less than 4.00.

Regarding `COc1cc(/C=C/C(=O)/C(OC(C)=O)=C(O)/C=C/c2cc(O)c(O)c(OC)c2)cc(O)c1O`, the pEC50 in experiment [1] was 5.54.

Turning to `CCOC(=S)S/C(C(=O)/C=C/c1ccc(OC)c(OC)c1)=C(O)\C=C\c1ccc(OC)c(OC)c1`, the pEC50 in experiment [1] was less than 4.00.

`CO/C(C(=O)/C=C/c1ccc(OC)c(OC)c1)=C(O)\C=C\c1ccc(OC)c(OC)c1`: the pEC50 in experiment [1] is 4.12.

Regarding `COc1ccc(/C=C/C(=O)/C=C(O)/C=C/c2ccc(OC)c(OC)c2)cc1OC` [DIMETHYLCURCUMIN], the pEC50 in experiment [1] is less than 4.00.

As to `COc1ccc(/C=C/C(=O)/C(OC(C)=O)=C(O)/C=C/c2ccc(OC)cc2)cc1`, the pEC50 in experiment [1] is 4.48. The Activity in experiment [2] came to 25%.
